{"source": "patent US9393221B2", "about": "“Methods and compounds for reducing intracellular lipid storage” (THE GENERAL HOSPITAL CORPORATION, priority 2011, dated 2016)", "note": "Structures can show the parent of a compound that is named as a salt."}
{"system": "ATGL-KO iPSCs", "assay": "High throughput iPSC chemical screening, Oil Red O (ORO) lipid accumulation; on Z-score: test concentration or dose not given here", "assay_type": "cell-based, mouse", "details": "not given"}
{"compound": "Oc1ccc2c3c1O[C@H]1[C@@H](O)CC[C@@]4(O)[C@@H](C2)N(CC2CCC2)CC[C@]314", "note": "[Nalbuphine hydrochloride]", "Z-score": "−1.0996"}
{"system": "ATGL-KO iPSCs", "assay": "High throughput iPSC chemical screening, Oil Red O (ORO) lipid accumulation; on Z-score: test concentration or dose not given here", "assay_type": "cell-based, mouse", "details": "glycolytic switch compounds"}
{"compound": "CC(COc1ccccc1)N(CCCl)Cc1ccccc1", "note": "(stereo not shown) [Phenoxybenzamine hydrochloride]", "Rank in normalized ORO score from screen": 702}
{"compound": "CN1CCN(C(c2ccccc2)c2ccc(Cl)cc2)CC1", "note": "(stereo not shown) [(1-[(4-Chlorophenyl)phenyl-methyl]-4-methylpiperazine)]", "Rank in normalized ORO score from screen": 720}
{"system": "ATGL-KO iPSCs", "assay": "High throughput iPSC chemical screening, Oil Red O (ORO) lipid accumulation; on Z-score: test concentration or dose not given here", "assay_type": "cell-based, mouse", "details": "normalized ORO level vs DMSO-treated cells; compound present during 7 days differentiation, 96-well; negative = decrease in lipid accumulation"}
{"compound": "CCNC1(c2cccs2)CCCCC1=O.Cl", "note": "(stereo not shown) [Tiletamine hydrochloride]", "Z-score": 1.2858}
{"compound": "COc1ccc(CN2CCNCC2)c(OC)c1OC", "note": "[Trimetazidine dihydrochloride]", "Z-score": 0.9654}
{"compound": "COc1ccccc1N1CCN(CCCNc2cc(=O)n(C)c(=O)n2C)CC1", "note": "[Urapidil hydrochloride]", "Z-score": "−1.2828"}
{"compound": "CN(C)[C@@H]1C(O)=C(C(N)=O)C(=O)[C@@]2(O)C(O)=C3C(=O)c4c(O)ccc(Cl)c4[C@@](C)(O)[C@H]3C[C@@H]12", "note": "[Chlortetracycline hydrochloride]", "Z-score": "−0.5479"}
{"compound": "Trimeprazine tartrate", "Z-score": "−1.418"}
{"compound": "CNCCc1ccccn1.CS(=O)(=O)O.CS(=O)(=O)O", "note": "[Betahistine mesylate]", "Z-score": 1.556}
{"compound": "CCN(CC)CCNC(=O)c1cc(S(C)(=O)=O)ccc1OC", "note": "[Tiapride hydrochloride]", "Z-score": "−1.0178"}
{"compound": "CC(=O)N(CC(C)C(=O)O)c1c(I)cc(I)c(N)c1I", "note": "(stereo not shown) [Iocetamic acid]", "Z-score": "−1.5742"}
{"compound": "O=C(O)COC(=O)Cc1ccccc1Nc1c(Cl)cccc1Cl", "note": "[Aceclofenac]", "Z-score": "−0.5442"}
{"compound": "COc1cc(OC)c(C(=O)CCCN2CCCC2)c(OC)c1", "note": "[Buflomedil hydrochloride]", "Z-score": "−0.0451"}
{"compound": "C[C@@]12C(=O)OC(=O)[C@]1(C)[C@H]1CC[C@@H]2O1", "note": "[Cantharidin]", "Z-score": 18.9862}
{"compound": "Beta-Escin", "Z-score": "−1.7261"}
{"compound": "O=C1CN(/N=C/c2ccc(-c3ccc([N+](=O)[O-])cc3)o2)C(O)=N1", "note": "[Dantrolene sodium salt]", "Z-score": "−0.3347"}
{"compound": "CC(=O)Oc1ccccc1C(=O)Oc1ccccc1C(=O)O", "note": "[Acetylsalicylsalicylic acid]", "Z-score": "−1.3067"}
{"compound": "c1ccc2c(c1)CCCC2C1=NCCN1", "note": "(stereo not shown) [Tetrahydrozoline hydrochloride]", "Z-score": "−0.9102"}
{"compound": "CC(=O)OCC1=C(C(=O)O)N2C(=O)[C@@H](NC(=O)Cc3cccs3)[C@H]2SC1", "note": "[Cephalothin sodium salt]", "Z-score": 0.8566}
{"compound": "COC(=O)C1=C(C)NC(C)=C(C(=O)OCCN(C)Cc2ccccc2)C1c1cccc([N+](=O)[O-])c1", "note": "(stereo not shown) [Nicardipine hydrochloride]", "Z-score": 1.451}
{"compound": "CCc1cccc(CC)c1NC(=O)CN(CC(=O)O)CC(=O)O", "note": "[Etifenin]", "Z-score": "−1.0427"}
{"compound": "O=c1oc2ccccc2c(O)c1Cc1c(O)c2ccccc2oc1=O", "note": "[Dicumarol]", "Z-score": 1.966}
{"compound": "NNC(=O)c1ccncc1", "note": "[Isoniazid]", "Z-score": 0.9473}
{"compound": "C=C(C)[C@@H]1CC[C@]2(CO)CC[C@]3(C)[C@H](CC[C@@H]4[C@@]5(C)CC[C@H](O)C(C)(C)[C@@H]5CC[C@]43C)[C@@H]12", "note": "[Betulin]", "Z-score": "−1.4148"}
{"compound": "CS(=O)(=O)c1ccc([C@@H](O)[C@@H](CF)NC(=O)C(Cl)Cl)cc1", "note": "[Florfenicol]", "Z-score": 31.4352}
{"compound": "CN(C)CCCSC(=N)N", "note": "[Dimaprit dihydrochloride]", "Z-score": "−1.2574"}
{"compound": "CCOc1cc(CC(=O)N[C@@H](CC(C)C)c2ccccc2N2CCCCC2)ccc1C(=O)O", "note": "[Repaglinide]", "Z-score": "−0.2231"}
{"compound": "CCN(CC)CCNC(=O)COc1ccc(OC)cc1", "note": "[Mefexamide hydrochloride]", "Z-score": "−0.2169"}
{"compound": "CN[C@@H]1[C@H](O[C@H]2[C@H](O[C@H]3[C@H](O)[C@@H](O)[C@H](NC(=N)N)[C@@H](O)[C@@H]3NC(=N)N)O[C@@H](C)[C@]2(O)CO)O[C@@H](CO)[C@H](O)[C@H]1O", "note": "[Dihydrostreptomycin sulfate]", "Z-score": 1.253}
{"compound": "COc1ccc(CC2c3cc(OC)c(OC)cc3CCN2C)cc1OC", "note": "(racemic) [Laudanosine (R,S)]", "Z-score": "−0.5493"}
{"compound": "COc1cc2nc(N3CCN(C(=O)C4CCCO4)CC3)nc(N)c2cc1OC", "note": "(stereo not shown) [Terazosin hydrochloride]", "Z-score": "−0.0723"}
{"compound": "CCCCNc1ccc(C(=O)OCCOCCOCCOCCOCCOCCOCCOCCOCCOC)cc1", "note": "[Benzonatate]", "Z-score": 0.06563}
{"compound": "COc1ccc(NS(=O)(=O)c2ccc(N)cc2)nn1", "note": "[Sulfamethoxypyridazine]", "Z-score": "−0.0234"}
{"compound": "CN1CCC2=C[C@H](O)[C@H]3OC(=O)c4cc5c(cc4[C@H]3[C@@H]21)OCO5", "note": "[Hippeastrine hydrobromide]", "Z-score": "−1.1441"}
{"compound": "COc1ccc2[nH]c([S+]([O-])Cc3ncc(C)c(OC)c3C)nc2c1", "note": "(stereo not shown) [Omeprazole]", "Z-score": "−0.5848"}
{"compound": "CCN1C[C@]2(C)CC[C@H](O)[C@]34C1[C@@H](C[C@H]23)[C@@]1(O)C[C@H](OC)[C@H]2C[C@@H]4[C@@H]1[C@H]2O", "note": "[Karakoline]", "Z-score": "−1.4178"}
{"compound": "O.Oc1cc(O)c2c(c1)OC(c1ccc(O)c(O)c1)C(O)C2", "note": "(racemic) [Catechin-(+,−) hydrate]", "Z-score": "−0.9777"}
{"compound": "CC(COc1ccccc1)N(CCCl)Cc1ccccc1", "note": "(stereo not shown) [Phenoxybenzamine hydrochloride]", "Z-score": 0.2031}
{"compound": "NC(=O)c1ncn([C@@H]2O[C@H](CO)[C@@H](O)[C@H]2O)n1", "note": "[Ribavirin]", "Z-score": "−1.5081"}
{"compound": "C=C[C@H]1C[N@@]2CC[C@H]1C[C@@H]2[C@@H](O)c1ccnc2ccc(OC)cc12", "note": "[Quinidine hydrochloride monohydrate]", "Z-score": 6.798}
{"compound": "O=C(O)CCCc1ccc(N(CCCl)CCCl)cc1", "note": "[Chlorambucil]", "Z-score": "−0.8818"}
{"compound": "O=C(O)c1cc(-c2ccc(F)cc2F)ccc1O", "note": "[Diflunisal]", "Z-score": "−0.3972"}
{"compound": "C=N[C@@H](C(=O)N[C@@H]1C(=O)N2[C@@H]1SC(C)(C)[C@@H]2C(=O)O)c1ccccc1", "note": "[Metampicillin sodium salt]", "Z-score": 0.638}
{"compound": "CC(=O)c1ccc2c(c1)N(CCCN(C)C)c1ccccc1S2.O=C(O)/C=C\\C(=O)O", "note": "[Acetopromazine maleate salt]", "Z-score": "−0.5926"}
{"compound": "COc1cc2nc(N(C)CCCNC(=O)C3CCCO3)nc(N)c2cc1OC", "note": "(stereo not shown) [Alfuzosin hydrochloride]", "Z-score": 0.4534}
{"compound": "CC(C)NC[C@@H](O)COc1cccc2ccccc12.Cl", "note": "[(R)-Propranolol hydrochloride]", "Z-score": "−0.4494"}
{"compound": "Cc1cc(=O)n(-c2ccccc2)n1C", "note": "[Antipyrine]", "Z-score": "−0.2127"}
{"compound": "C=C1c2c(Cl)ccc(O)c2C(=O)C2=C(O)[C@]3(O)C(=O)C(C(N)=O)=C(O)[C@@H](N(C)C)[C@@H]3[C@@H](O)[C@H]12.O=C(O)c1cc(S(=O)(=O)O)ccc1O", "note": "[Meclocycline sulfosalicylate]", "Z-score": 8.326}
{"compound": "C[C@]12CC[C@@H]3c4ccc(O)cc4CC[C@H]3[C@@H]1C[C@@H](O)[C@@H]2O", "note": "[Estriol]", "Z-score": 0.06999}
{"compound": "Cc1ccccc1N1C(=O)c2cc(S(N)(=O)=O)c(Cl)cc2NC1C", "note": "(stereo not shown) [Metolazone]", "Z-score": "−0.7452"}
{"compound": "CC(N)CCCC(C)(C)O", "note": "(stereo not shown) [Heptaminol hydrochloride]", "Z-score": "−0.2987"}
{"compound": "c1cncc([C@@H]2CCCCN2)c1", "note": "[Anabasine]", "Z-score": "−0.7781"}
{"compound": "N=C(N)c1ccc(OCCCCCOc2ccc(C(=N)N)cc2)cc1", "note": "[Pentamidine isethionate]", "Z-score": 14.9126}
{"compound": "C(#CCN1CCCC1)CN1CCCC1.Cl.Cl", "note": "[Tremorine dihydrochloride]", "Z-score": 0.3583}
{"compound": "CCCCc1oc2ccccc2c1C(=O)c1cc(I)c(OCCN(CC)CC)c(I)c1", "note": "[Amiodarone hydrochloride]", "Z-score": 0.1139}
{"compound": "Cc1n[nH]c(=O)[nH]c1=O", "note": "[Azathymine, 6]", "Z-score": "−0.2304"}
{"compound": "CCc1c(C)[nH]c2c1C(=O)C(CN1CCOCC1)CC2", "note": "(stereo not shown) [Molindone hydrochloride]", "Z-score": 2.263}
{"compound": "CN(C)c1ccc(O)c2c1C[C@H]1C[C@H]3[C@H](N(C)C)C(O)=C(C(N)=O)C(=O)[C@@]3(O)C(O)=C1C2=O", "note": "[Minocycline hydrochloride]", "Z-score": 5.776}
{"compound": "CC1(C)S[C@@H]2[C@H](NC(=O)[C@H](N)c3ccc(O)cc3)C(=O)N2[C@H]1C(=O)O", "note": "[Amoxicillin]", "Z-score": "−0.1957"}
{"compound": "CN1CCN(C(c2ccccc2)c2ccc(Cl)cc2)CC1", "note": "(stereo not shown) [(1-[(4-Chlorophenyl)phenyl-methyl]-4-methylpiperazine)]", "Z-score": 0.241}
{"compound": "O=c1c(O)c(-c2ccc(O)cc2)oc2cc(O)cc(O)c12", "note": "[Kaempferol]", "Z-score": "−0.0374"}
{"compound": "COC(=O)[C@@H]1[C@H]2C[C@H]3c4[nH]c5ccccc5c4CCN3C[C@@H]2CC[C@@H]1O", "note": "[Yohimbine hydrochloride]", "Z-score": "−1.0356"}
{"compound": "Fc1ccc(C(c2ccc(F)cc2)N2CCN(C/C=C/c3ccccc3)CC2)cc1", "note": "[Flunarizine dihydrochloride]", "Z-score": 0.2207}
{"compound": "CN1C(=O)CCS(=O)(=O)C1c1ccc(Cl)cc1", "note": "(stereo not shown) [Chlormezanone]", "Z-score": "−0.6525"}
{"compound": "Cn1c(=O)c2c(ncn2CCO)n(C)c1=O", "note": "[Etofylline]", "Z-score": "−0.8406"}
{"compound": "CN1Cc2c(N)cccc2C(c2ccccc2)C1", "note": "(stereo not shown) [Nomifensine maleate]", "Z-score": "−1.3149"}
{"compound": "O=C(O)Cc1ccc(-c2ccccc2)cc1", "note": "[Felbinac]", "Z-score": "−0.9529"}
{"compound": "Terbutaline hemisulfate", "Z-score": 2.278}
{"compound": "C[N+](C)(CCOc1ccccc1)Cc1ccccc1.O=C([O-])c1cc2ccccc2cc1O", "note": "[Bephenium hydroxynaphthoate]", "Z-score": "−0.5444"}
{"compound": "Cc1scc2c1N(C(=O)CN1CCN(C)CC1)c1ccccc1NC2=O", "note": "[Telenzepine dihydrochloride]", "Z-score": 0.2257}
{"compound": "CC(=O)Oc1cc(C(C)C)c(OCCN(C)C)cc1C.Cl", "note": "[Moxisylyte hydrochoride]", "Z-score": "−0.4722"}
{"compound": "NS(=O)(=O)c1cc2c(cc1Cl)NC(C(Cl)Cl)NS2(=O)=O", "note": "(stereo not shown) [Trichlormethiazide]", "Z-score": "−1.2081"}
{"compound": "CN(C)/N=N/c1[nH]cnc1C(N)=O", "note": "[Dacarbazine]", "Z-score": "−0.3016"}
{"compound": "CC(=O)[C@H]1CC[C@H]2[C@@H]3CCC4=CC(=O)CC[C@]4(C)[C@H]3CC[C@]12C", "note": "[Progesterone]", "Z-score": 2.344}
{"compound": "Carbinoxamine maleate salt", "Z-score": 0.218}
{"compound": "CN1CCCC(CC2c3ccccc3Sc3ccccc32)C1", "note": "(stereo not shown) [Metixene hydrochloride]", "Z-score": "−0.8136"}
{"compound": "Cn1c(=O)c2c(ncn2CC(O)CO)n(C)c1=O", "note": "(stereo not shown) [Diprophylline]", "Z-score": "−0.3767"}
{"compound": "COc1cc([C@@H]2c3cc4c(cc3[C@@H](O[C@@H]3O[C@@H]5CO[C@@H](C)O[C@H]5[C@H](O)[C@H]3O)[C@H]3COC(=O)[C@H]23)OCO4)cc(OC)c1O", "note": "[Etoposide]", "Z-score": 39.4033}
{"compound": "CCCCCN(CCCCC)C(=O)C(CCC(=O)O)NC(=O)c1ccc(Cl)c(Cl)c1", "note": "(stereo not shown) [Lorglumide sodium salt]", "Z-score": "−1.7664"}
